# According to PMC6210068 (ACS Omega, 2018):
# Assays:
# DOR [1] = molecular target: T1, DOR (Homo sapiens, UniProt P41143); assay: Radioligand binding at DOR
# hNOP = hNOP (Homo sapiens, UniProt P41146); assay: Radioligand binding at NOP
# rat kidney TSPO = rat kidney TSPO (Rattus norvegicus, UniProt P16257); assay: Radioligand binding at TSPO; details: for Ki: TSPO, rat TSPO, [3H]PK11195
# hDAT = hDAT (Homo sapiens, UniProt Q01959); assay: Radioligand binding at DAT; details: for DAT, inhibition, % of control at 10 μM: [3H]WIN35428, negative = enhanced radioligand binding
# DOR [2] = molecular target: T1, DOR; assay: β-arrestin-recruitment TANGO assay at DOR; assay type: cell-based; details: 10 μM; for DOR Antag (%): vs naloxone 121 = 100% inhibition; for DOR Ag (%): vs standard agonist = 100%
# KOR [3] = molecular target: T2, KOR (Homo sapiens, UniProt P41145); assay: β-arrestin-recruitment TANGO assay at KOR; assay type: cell-based; details: 10 μM; vs naloxone 121 = 100% inhibition; agonist 109 (3 nM)
# MOR [4] = molecular target: T3, MOR (Homo sapiens, UniProt P35372); assay: β-arrestin-recruitment TANGO assay at MOR; assay type: cell-based; details: 10 μM; for MOR Antag (%): vs naloxone 121 = 100% inhibition, agonist 99 (300 nM); for MOR Ag (%): vs standard agonist = 100%
# mA3AR = molecular target: T4, mA3AR (Mus musculus, UniProt Q61618); assay: Mouse A3AR binding
# T4 sequence (Q61618 1-319): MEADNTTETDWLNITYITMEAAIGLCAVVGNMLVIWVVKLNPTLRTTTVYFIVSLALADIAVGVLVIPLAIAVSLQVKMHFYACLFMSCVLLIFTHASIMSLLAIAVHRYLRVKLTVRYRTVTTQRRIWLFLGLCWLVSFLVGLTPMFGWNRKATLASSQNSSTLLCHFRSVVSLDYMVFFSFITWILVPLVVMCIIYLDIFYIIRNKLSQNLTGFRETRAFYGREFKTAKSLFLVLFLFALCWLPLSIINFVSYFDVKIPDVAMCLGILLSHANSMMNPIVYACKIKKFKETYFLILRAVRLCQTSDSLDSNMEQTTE
# hA3AR = molecular target: T5, hA3AR (Homo sapiens, UniProt P0DMS8); assay: A3AR binding
# T5 sequence (P0DMS8 1-318): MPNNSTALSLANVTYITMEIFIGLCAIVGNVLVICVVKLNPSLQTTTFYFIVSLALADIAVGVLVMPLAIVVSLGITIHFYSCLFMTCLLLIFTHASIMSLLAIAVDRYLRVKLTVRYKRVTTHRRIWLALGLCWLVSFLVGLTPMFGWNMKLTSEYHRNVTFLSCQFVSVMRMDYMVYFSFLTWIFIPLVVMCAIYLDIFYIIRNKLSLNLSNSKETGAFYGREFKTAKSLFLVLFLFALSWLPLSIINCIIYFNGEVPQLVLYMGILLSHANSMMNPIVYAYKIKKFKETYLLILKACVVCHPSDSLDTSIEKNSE
# hA1AR = molecular target: T6, hA1AR (Homo sapiens, UniProt P30542); assay: hA1AR binding; details: read-out: binding inhibition at hA1AR (% at 10 μM)
# T6 sequence (P30542 1-326): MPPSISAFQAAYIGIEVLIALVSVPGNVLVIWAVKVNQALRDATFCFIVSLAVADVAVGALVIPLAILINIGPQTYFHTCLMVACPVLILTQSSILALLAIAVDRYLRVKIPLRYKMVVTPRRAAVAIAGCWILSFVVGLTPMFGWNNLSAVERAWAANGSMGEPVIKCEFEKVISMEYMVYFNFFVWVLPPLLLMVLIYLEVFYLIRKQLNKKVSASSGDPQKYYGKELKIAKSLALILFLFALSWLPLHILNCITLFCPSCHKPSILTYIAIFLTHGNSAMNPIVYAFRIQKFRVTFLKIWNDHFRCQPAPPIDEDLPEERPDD
# hA2AAR = hA2AAR (Homo sapiens, UniProt P29274); assay: hA2AAR binding; details: read-out: binding inhibition at hA2AAR (% at 10 μM)
# KOR [5] = molecular target: T2, KOR; assay: biochemical; assay type: binding; details: for Ki: KOR, [3H]U69593, mean ± SEM, N = 2–4
# MOR [6] = molecular target: T3, MOR; assay: biochemical; assay type: binding; details: for MOR, inhibition of radioligand binding at 10 μM (class): Table 2
# KOR [7] = molecular target: T2, KOR; assay type: cell-based; details: antagonism of 1 μM U69593 98
# rat σ2 receptor = molecular target: T7, rat σ2 receptor (Rattus norvegicus, UniProt Q5U3Y7); assay: PDSP binding, σ2 receptor
# T7 sequence (Q5U3Y7 1-176): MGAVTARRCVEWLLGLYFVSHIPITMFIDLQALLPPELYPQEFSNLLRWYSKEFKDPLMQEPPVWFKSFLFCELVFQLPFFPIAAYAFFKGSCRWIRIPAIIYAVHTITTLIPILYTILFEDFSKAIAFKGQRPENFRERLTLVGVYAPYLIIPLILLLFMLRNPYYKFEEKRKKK
# T3 sequence (P35372 whole entry): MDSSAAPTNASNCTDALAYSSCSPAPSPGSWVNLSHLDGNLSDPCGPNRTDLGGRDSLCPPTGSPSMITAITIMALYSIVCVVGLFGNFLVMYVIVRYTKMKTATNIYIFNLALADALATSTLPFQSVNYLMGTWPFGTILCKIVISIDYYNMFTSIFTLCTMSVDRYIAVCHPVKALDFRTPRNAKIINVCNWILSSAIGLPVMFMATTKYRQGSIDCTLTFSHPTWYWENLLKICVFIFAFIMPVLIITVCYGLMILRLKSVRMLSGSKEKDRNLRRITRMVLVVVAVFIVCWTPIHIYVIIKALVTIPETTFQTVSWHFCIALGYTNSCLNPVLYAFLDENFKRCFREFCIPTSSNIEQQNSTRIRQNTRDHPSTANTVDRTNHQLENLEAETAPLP
# hA2AAR, sequence (P29274 whole entry): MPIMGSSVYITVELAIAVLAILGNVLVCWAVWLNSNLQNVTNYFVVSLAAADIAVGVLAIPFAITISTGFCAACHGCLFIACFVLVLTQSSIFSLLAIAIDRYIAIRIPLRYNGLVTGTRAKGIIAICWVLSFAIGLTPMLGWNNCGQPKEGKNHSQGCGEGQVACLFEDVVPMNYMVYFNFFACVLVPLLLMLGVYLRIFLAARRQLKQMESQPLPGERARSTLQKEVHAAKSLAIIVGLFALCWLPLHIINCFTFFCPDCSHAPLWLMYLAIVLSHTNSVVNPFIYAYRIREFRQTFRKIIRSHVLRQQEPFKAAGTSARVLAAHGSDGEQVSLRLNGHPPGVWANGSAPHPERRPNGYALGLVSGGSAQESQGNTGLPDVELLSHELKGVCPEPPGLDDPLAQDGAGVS
# T2 sequence (P41145 whole entry): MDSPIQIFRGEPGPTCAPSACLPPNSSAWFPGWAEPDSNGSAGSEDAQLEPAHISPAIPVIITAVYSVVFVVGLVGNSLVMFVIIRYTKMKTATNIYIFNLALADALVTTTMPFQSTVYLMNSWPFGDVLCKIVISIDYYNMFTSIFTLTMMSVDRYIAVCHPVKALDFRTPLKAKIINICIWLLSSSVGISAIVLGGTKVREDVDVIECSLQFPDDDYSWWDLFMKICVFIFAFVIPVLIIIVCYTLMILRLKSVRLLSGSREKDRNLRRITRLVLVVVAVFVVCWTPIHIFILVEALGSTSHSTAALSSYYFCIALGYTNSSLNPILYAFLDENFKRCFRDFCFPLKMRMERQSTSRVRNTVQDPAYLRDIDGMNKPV
# hNOP, sequence (P41146 whole entry): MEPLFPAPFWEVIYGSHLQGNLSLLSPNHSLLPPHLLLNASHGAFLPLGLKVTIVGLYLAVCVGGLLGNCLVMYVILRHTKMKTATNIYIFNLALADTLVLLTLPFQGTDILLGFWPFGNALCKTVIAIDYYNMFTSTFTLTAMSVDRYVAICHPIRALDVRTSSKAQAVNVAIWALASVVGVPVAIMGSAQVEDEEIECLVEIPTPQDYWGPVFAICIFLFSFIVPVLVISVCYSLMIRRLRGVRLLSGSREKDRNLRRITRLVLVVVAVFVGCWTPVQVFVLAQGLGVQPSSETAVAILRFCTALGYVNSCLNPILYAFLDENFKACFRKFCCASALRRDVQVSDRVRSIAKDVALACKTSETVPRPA
# hDAT, sequence (Q01959 whole entry): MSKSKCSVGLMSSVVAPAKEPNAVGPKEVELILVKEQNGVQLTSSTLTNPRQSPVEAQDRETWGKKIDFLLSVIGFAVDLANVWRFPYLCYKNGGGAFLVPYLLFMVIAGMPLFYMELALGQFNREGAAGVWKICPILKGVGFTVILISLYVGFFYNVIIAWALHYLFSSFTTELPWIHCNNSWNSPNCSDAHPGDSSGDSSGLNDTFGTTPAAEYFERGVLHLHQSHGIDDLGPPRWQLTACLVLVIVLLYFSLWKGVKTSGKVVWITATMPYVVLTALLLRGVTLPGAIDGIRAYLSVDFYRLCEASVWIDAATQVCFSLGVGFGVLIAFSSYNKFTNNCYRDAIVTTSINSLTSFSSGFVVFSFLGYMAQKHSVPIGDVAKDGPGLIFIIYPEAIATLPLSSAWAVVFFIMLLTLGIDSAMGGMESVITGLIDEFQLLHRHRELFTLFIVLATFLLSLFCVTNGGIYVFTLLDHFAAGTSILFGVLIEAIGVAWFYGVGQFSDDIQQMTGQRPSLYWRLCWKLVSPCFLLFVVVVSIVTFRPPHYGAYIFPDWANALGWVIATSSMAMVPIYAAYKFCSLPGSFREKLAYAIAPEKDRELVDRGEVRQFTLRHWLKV
# T1 sequence (P41143 whole entry): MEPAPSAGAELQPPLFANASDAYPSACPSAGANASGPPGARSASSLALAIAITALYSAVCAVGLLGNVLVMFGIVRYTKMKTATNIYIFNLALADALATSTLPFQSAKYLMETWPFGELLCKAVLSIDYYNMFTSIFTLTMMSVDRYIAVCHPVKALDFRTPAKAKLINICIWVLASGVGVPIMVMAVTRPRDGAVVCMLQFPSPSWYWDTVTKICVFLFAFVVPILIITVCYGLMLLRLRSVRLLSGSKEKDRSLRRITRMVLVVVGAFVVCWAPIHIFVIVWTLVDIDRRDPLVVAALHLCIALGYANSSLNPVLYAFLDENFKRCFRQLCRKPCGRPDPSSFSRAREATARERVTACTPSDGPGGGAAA
# rat kidney TSPO, sequence (P16257 whole entry): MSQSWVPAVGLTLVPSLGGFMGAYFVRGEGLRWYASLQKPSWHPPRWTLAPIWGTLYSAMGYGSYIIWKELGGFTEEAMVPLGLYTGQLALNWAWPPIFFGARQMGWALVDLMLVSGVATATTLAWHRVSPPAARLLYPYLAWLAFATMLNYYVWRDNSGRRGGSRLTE
SMILES,Ki (DOR [1]),Ki (hNOP),Ki (rat kidney TSPO),"DAT, inhibition, % of control at 10 μM (hDAT)",DOR Antag (%) (DOR [2]),DOR Ag (%) (DOR [2]),KOR Antag (%) (KOR [3]),MOR Antag (%) (MOR [4]),MOR Ag (%) (MOR [4]),"DOR, inhibition of radioligand binding at 10 μM (class) (DOR [1]; Table 1)",Ki (mA3AR),Ki (hA3AR),inhibition at 10 µM (hA1AR),inhibition at 10 µM (hA2AAR),"DOR, inhibition of radioligand binding at 10 μM (class) (DOR [1]; Table 2)",Ki (KOR [5]),Ki (MOR [6]),also measured
CNC(=O)[C@@]12C[C@@H]1[C@@H](n1cnc3c(NCc4cccc(Cl)c4)nc(C#Cc4ccc(F)c(F)c4)nc31)[C@H](O)[C@@H]2O [compound 4],2480 ± 790 nM,4560 ± 450 nM,~300 nM,16%,25.3%,–10.3%,125%,18.8%,–1.6%,,,,,,,,,
CNC(=O)[C@@]12C[C@@H]1[C@@H](n1cnc3c(NC)nc(C#Cc4ccccc4Cl)nc31)[C@H](O)[C@@H]2O [compound 13],,,,–484%,,,,,,^e (30–50% inhibition of radioligand binding at 10 μM),110 nM,,,,,,,"TSPO, inhibition of radioligand binding at 10 μM (class) (rat kidney TSPO; Table 1, 10 μM): ^e (30–50% inhibition of radioligand binding at 10 μM)"
CNC(=O)[C@@]12C[C@@H]1[C@@H](n1cnc3c(NCCC(F)(F)F)nc(C#Cc4ccc(Cl)s4)nc31)[C@H](O)[C@@H]2O [compound 19],,,1300 ± 150 nM,15%,,,,,,^e (30–50% inhibition of radioligand binding at 10 μM),71 nM,3.7 ± 1 nM,46%,21%,,,,
CNC(=O)[C@@]12C[C@@H]1[C@@H](n1cnc3c(NCCCO)nc(C#Cc4ccc(Cl)s4)nc31)[C@H](O)[C@@H]2O [compound 20],,,6160 ± 50 nM,–107 ± 4%,,,,,,^e (30–50% inhibition of radioligand binding at 10 μM),105 nM,2.04 ± 1.46 nM,,,,,,
CCOC(=O)[C@@]12C[C@@H]1[C@@H](n1cnc3c(NC)nc(C#Cc4ccc(Br)s4)nc31)[C@H](O)[C@@H]2O [compound 25],,> 10000 nM,1520 ± 250 nM,–430%,–6.0%,–1.7%,88.1%,22.6%,–1.2%,,,,,,^c (30–50% inhibition of radioligand binding at 10 μM),975 ± 198 nM,,"MOR, inhibition of radioligand binding at 10 μM (class) (MOR [6]): ^c (30–50% inhibition of radioligand binding at 10 μM)"
"CCOC(=O)[C@@]12C[C@@H]1[C@@H](n1ccc3c(NC)nc(C#Cc4ccc(Br)s4)nc31)[C@H](O)[C@@H]2O [compound 29, Ethyl(1S,2R,3S,4R,5S)-4-(2-((5-bromothiophen-2-yl)ethynyl)-4-(methylamino)-7H-pyrrolo[2,3-d]pyrimidin-7-yl)-2,3-dihydroxybicyclo[3.1.0]hexane-1-carboxylate]",437 ± 94 nM,2760 ± 670 nM,765 ± 118 nM,–102 ± 8 (3) %,93.2%,–1.1%,104.5%,96.9%,1.6%,,,466 ± 20 nM,,,,39 ± 1 nM,368 ± 135 nM,preference for KOR in comparison to DOR (KOR [5]; ratio of Ki): 11 fold; preference for KOR in comparison to MOR (KOR [5]; ratio of Ki): 9 fold; preference for KOR in comparison to TSPO (KOR [5]; ratio of Ki): ~20 fold; EC50 (hDAT): > 1000 nM
CNc1nc(C#Cc2ccc(Cl)s2)nc2c1ncn2[C@H]1[C@H](O)[C@H](O)[C@]2(C(=O)OCc3ccccc3)C[C@H]12 [compound 35],,,4050 ± 740 nM,<20%,14.1%,–1.9%,112.9%,82.1%,3.1%,,891 nM,7.81 ± 2.4 nM,,,^d (<30% inhibition of radioligand binding at 10 μM),629 ± 183 nM,,"MOR, inhibition of radioligand binding at 10 μM (class) (MOR [6]): ^c (30–50% inhibition of radioligand binding at 10 μM)"
"CCOC(=O)[C@@]12C[C@@H]1[C@@H](n1ccc3c(NC)nc(C#Cc4ccccc4)nc31)[C@H](O)[C@@H]2O [compound 40, Ethyl(1S,2R,3S,4R,5S)-2,3-dihydroxy-4-(4-(methylamino)-2-(phenylethynyl)-7H-pyrrolo[2,3-d]pyrimidin-7-yl)bicyclo[3.1.0]hexane-1-carboxylate]",1780 ± 410 nM,,> 10000 nM,–66%,,,,,,,,344 ± 40 nM,35%,22%,,91.5 ± 23.7 nM,1480 ± 450 nM,"βarrestin2 recruitment, Imax (% 120) (KOR [7]): 76 ± 2 % 120"
"CCOC(=O)[C@@]12C[C@@H]1[C@@H](n1ccc3c(NCC4CC4)nc(C#Cc4ccccc4)nc31)[C@H](O)[C@@H]2O [compound 42, Ethyl(1S,2R,3S,4R,5S)-4-(4-((cyclopropylmethyl)amino)-2-(phenylethynyl)-7H-pyrrolo[2,3-d]pyrimidin-7-yl)-2,3-dihydroxybicyclo[3.1.0]hexane-1-carboxylate]",,,4470 ± 1330 nM,–13%,,,,,,,,791 ± 433 nM,34%,20%,^c (30–50% inhibition of radioligand binding at 10 μM),1400 ± 210 nM,1300 ± 530 nM,Ki (rat σ2 receptor): 1110 nM
CCCCC(=O)[C@@]12C[C@@H]1[C@@H](n1ccc3c(NC)nc(C#Cc4ccc(Cl)s4)nc31)[C@H](O)[C@@H]2O [compound 44],,> 10000 nM,,–9%,20.3%,6.7%,65.5%,–44.4%,6.0%,,,98 ± 30 nM,,,,2610 ± 660 nM,,
